Measurements from the NIST ThermoML archive (doi:10.1021/je800783a).

Experiment: xn = mol fraction of the nth substance listed
Details: 101 kPa, Liquid, Vibrating tube method

CCCn1cc[n+](C)c1.N[C@@H](CCC(=O)O)C(=O)[O-] + O
mass density [kg/m3]
Details	313.15 K	318.15 K	323.15 K	328.15 K	333.15 K	338.15 K
x1 = 0.039	1075.97	1073.22	1070.37	1067.43	1064.43	1061.36
x1 = 0.0455	1085.27	1082.41	1079.46	1076.44	1073.32	1070.11
x1 = 0.0497	1091.07	1088.19	1085.24	1082.22	1079.13	1075.98
x1 = 0.0683	1111.85	1108.8	1105.7	1102.55	1099.36	1096.1
x1 = 0.0783	1121.25	1118.14	1114.98	1111.78	1108.54	1105.26
x1 = 0.0894	1129.5	1126.34	1123.14	1119.9	1116.63	1113.31
x1 = 0.0975	1134.91	1131.71	1128.49	1125.24	1121.94	1118.6
x1 = 0.1235	1150.57	1147.32	1144.03	1140.73	1137.4	1134.05
x1 = 0.1451	1159.24	1155.99	1152.7	1149.4	1146.06	1142.71
x1 = 0.1925	1172.52	1169.27	1166	1162.68	1159.35	1155.98
x1 = 0.239	1181.78	1178.48	1175.27	1172	1168.59	1165.3
x1 = 0.2888	1188.1	1184.82	1181.51	1178.21	1174.99	1171.72
x1 = 0.3294	1192.09	1188.84	1185.58	1182.29	1178.98	1175.77
x1 = 0.3767	1195.42	1192.17	1188.94	1185.67	1182.34	1179.04
x1 = 0.4265	1199.74	1196.17	1192.88	1189.64	1186.35	1183.09
x1 = 0.4713	1200.57	1197.03	1193.63	1190.41	1187.18	1183.94
x1 = 0.5112	1201.78	1198.21	1194.79	1191.55	1188.22	1184.93
x1 = 0.5427	1203.93	1200.61	1197.22	1193.66	1190.35	1187.07
